Patent publication US9783537B2, “3-(4-ethylnylphenyl) pyridopyrimidinone compounds and process for preparation thereof useful as potential anticancer agents” (Council of Scientific & Industrial Research, priority 2013, dated 2017)
Like-named read-outs stand apart in the source and are kept apart here.

Assays:
SNB-19 = assay: SRB 48 h growth assay, CNS SNB-19; assay type: cell-based, human; settings: SNB-19, CNS
SK-MEL-28 = assay: SRB 48 h growth assay, Melanoma SK-MEL-28; assay type: cell-based, human; settings: SK-MEL-28, Melanoma
SK-MEL-2 = assay: SRB 48 h growth assay, Melanoma SK-MEL-2; assay type: cell-based, human; settings: SK-MEL-2, Melanoma
HOP-92 = assay: SRB 48 h growth assay, Non-small Cell Lung HOP-92; assay type: cell-based, human; settings: HOP-92, Non-small Cell Lung
CCRF-CEM = assay: SRB 48 h growth assay, Leukemia CCRF-CEM; assay type: cell-based, human
OVCAR-3 = assay: SRB 48 h growth assay, Ovarian OVCAR-3; assay type: cell-based, human; settings: OVCAR-3, Ovarian
HOP-62 = assay: SRB 48 h growth assay, Non-small Cell Lung HOP-62; assay type: cell-based, human; settings: HOP-62, Non-small Cell Lung
786-0 = assay: SRB 48 h growth assay, Renal 786-0; assay type: cell-based, human; settings: 786-0, Renal
NCI-H23 = assay: SRB 48 h growth assay, Non-small Cell Lung NCI-H23; assay type: cell-based, human; settings: for GI50: Homo sapiens
UACC-257 = assay: SRB 48 h growth assay, Melanoma UACC-257; assay type: cell-based, human; settings: UACC-257, Melanoma
[1] = tested on: six breast cancer cell line (MCF-7, MDA-MB-231/ATCC, HS 578T, TD-47D, MDA-MB-468 and BT-549); assay: in vitro anticancer activity, breast panel; assay type: cell-based; settings: Homo sapiens; six breast cancer cell lines, exposure at least 48 h; read-out: GI50, range over panel
[2] = tested on: seven ovarian cancer cell lines (IGROV1, OVCAR-3, OVCAR-4, OVCAR-5, OVCAR-8, NCI/ADR-RES and SK-OV-3); assay: in vitro anticancer activity, ovarian panel; assay type: cell-based; settings: Homo sapiens, exposure at least 48 h, read-out: GI50, range over panel
HCC-2998 = assay: SRB 48 h growth assay, Colon HCC-2998; assay type: cell-based, human; settings: HCC-2998, Colon
UO-31 = assay: SRB 48 h growth assay, Renal UO-31; assay type: cell-based, human; settings: UO-31, Renal
[3] = in vitro anticancer activity, non-small cell lung panel; assay type: cell-based; settings: Homo sapiens; nine non-small cell lung cancer cell lines, exposure at least 48 h; read-out: GI50, range over panel
U251 = assay: SRB 48 h growth assay, CNS U251; assay type: cell-based, human
[4] = tested on: two prostate cancer cell line (PC-3, DU-145); assay: in vitro anticancer activity, prostate panel; assay type: cell-based; settings: Homo sapiens; two prostate cancer cell lines, exposure at least 48 h; read-out: GI50, range over panel
KM12 = assay: SRB 48 h growth assay, Colon KM12; assay type: cell-based, human
NCI/ADR-RES = assay: SRB 48 h growth assay, Ovarian NCI/ADR-RES; assay type: cell-based, human
RXF393 = assay: SRB 48 h growth assay, Renal RXF393; assay type: cell-based, human
HCT-116 = assay: SRB 48 h growth assay, Colon HCT-116; assay type: cell-based, human; settings: HCT-116, Colon
T-47D = assay: SRB 48 h growth assay, Breast T-47D; assay type: cell-based, human
OVCAR-4 = assay: SRB 48 h growth assay, Ovarian OVCAR-4; assay type: cell-based, human; settings: OVCAR-4, Ovarian
HS578T = assay: SRB 48 h growth assay, Breast HS578T; assay type: cell-based, human
OVCAR-8 = assay: SRB 48 h growth assay, Ovarian OVCAR-8; assay type: cell-based, human; settings: OVCAR-8, Ovarian
HT-29 = assay: SRB 48 h growth assay, Colon HT-29; assay type: cell-based, human; settings: HT-29, Colon
[5] = Homo sapiens, read-out: Growth Inhibition GI50
[6] = Homo sapiens, read-out: Log10 GI50 (converted)
[7] = Homo sapiens, read-out: Log10 LC50 (converted)

`C#Cc1ccc(-n2c(/C=C/c3cc(OC)c(OC)c(OC)c3)nc3ncccc3c2=O)cc1` [4q, (E)-3-(4-Ethynylphenyl)-2-(3,4,5-trimethoxystyryl)pyrido[2,3-d]pyrimidin-4(3H)-one] gave a GI50 (SNB-19; [5]) of 16.2 µM, a GI50 (SNB-19; [6]) of 16.2 µM and a CC50 (SNB-19; [7]) greater than 100 µM. For the same compound, the “Log10 TGI50” value (SNB-19) was greater than −4.00, the GI50 (SK-MEL-28; [5]) was 34.6 µM and the GI50 (SK-MEL-28; [6]) was 34.7 µM. The CC50 (SK-MEL-28; [7]) was greater than 100 µM, the “Log10 TGI50” value (SK-MEL-28) was greater than −4.00 and the GI50 (SK-MEL-2; [5]) was 4.54 µM. The GI50 (SK-MEL-2; [6]) was 4.57 µM, the CC50 (SK-MEL-2; [7]) was greater than 100 µM and the “Log10 TGI50” value (SK-MEL-2) was −4.66. For the same compound, the “Log10 TGI50” value (HOP-92) was −5.11, the GI50 (HOP-92; [5]) was 2.31 µM and the GI50 (HOP-92; [6]) was 2.29 µM. For the same compound, the CC50 (HOP-92; [7]) was greater than 100 µM, the “Log10 TGI50” value (CCRF-CEM) was greater than −4.00 and the CC50 (CCRF-CEM; Homo sapiens, CCKF-CEM, read-out: Log10 LC50 (converted)) was greater than 100 µM. The GI50 (CCRF-CEM; [5]) was 4.9 µM, the GI50 (CCRF-CEM; [6]) was 4.9 µM and the GI50 (OVCAR-3; [5]) was 2.33 µM. For the same compound, the GI50 (OVCAR-3; [6]) was 2.34 µM, the CC50 (OVCAR-3; [7]) was greater than 100 µM and the “Log10 TGI50” value (OVCAR-3) was −5.19. The “Log10 TGI50” value (HOP-62) was greater than −4.00, the GI50 (HOP-62; [5]) was 13.3 µM and the GI50 (HOP-62; [6]) was 13.2 µM. The CC50 (HOP-62; [7]) was greater than 100 µM, the “Log10 TGI50” value (786-0) was greater than −4.00 and the GI50 (786-0; [5]) was 5.31 µM. The GI50 (786-0; [6]) was 5.25 µM, the CC50 (786-0; [7]) was greater than 100 µM and the “Log10 TGI50” value (NCI-H23) was greater than −4.00. It also gave a GI50 (NCI-H23; read-out: Growth Inhibition GI50) of 17.3 µM, a GI50 (NCI-H23; read-out: Log10 GI50 (converted)) of 17.4 µM and a GI50 (UACC-257; [5]) of 9.74 µM. The GI50 (UACC-257; [6]) was 9.77 µM, the CC50 (UACC-257; [7]) was greater than 100 µM and the “Log10 TGI50” value (UACC-257) was greater than −4.00. For the same compound, the GI50 [1] was 1.51 to 3.46 µM, the GI50 [2] was 1.67 to 3.61 µM and the “Log10 TGI50” value (HCC-2998) was greater than −4.00. It also gave a GI50 (HCC-2998; [5]) of 27.5 µM, a GI50 (HCC-2998; [6]) of 27.5 µM and a CC50 (HCC-2998; [7]) greater than 100 µM. It also gave a GI50 (UO-31; [5]) of 4.09 µM, a GI50 (UO-31; [6]) of 4.07 µM and a CC50 (UO-31; [7]) greater than 100 µM. The “Log10 TGI50” value (UO-31) was greater than −4.00, the GI50 [3] was 1.32 to 3.9 µM and the “Log10 TGI50” value (U251) was greater than −4.00. The GI50 (U251; Homo sapiens, U-251, read-out: Growth Inhibition GI50) was 9.93 µM, the GI50 (U251; Homo sapiens, U-251, read-out: Log10 GI50 (converted)) was 10 µM and the CC50 (U251; Homo sapiens, U-251, read-out: Log10 LC50 (converted)) was greater than 100 µM. For the same compound, the GI50 [4] was 1.96 to 3.76 µM, the “Log10 TGI50” value (KM12) was −4.89 and the GI50 (KM12; [5]) was 3.32 µM. For the same compound, the GI50 (KM12; [6]) was 3.31 µM, the CC50 (KM12; [7]) was greater than 100 µM and the “Log10 TGI50” value (NCI/ADR-RES) was −4.46. It also gave a GI50 (NCI/ADR-RES; [5]) of 3.61 µM, a GI50 (NCI/ADR-RES; [6]) of 3.63 µM and a CC50 (NCI/ADR-RES; [7]) greater than 100 µM. The “Log10 TGI50” value (RXF393) was greater than −4.00, the GI50 (RXF393; Homo sapiens, RXF 393, read-out: Growth Inhibition GI50) was 7.04 µM and the GI50 (RXF393; Homo sapiens, RXF 393, read-out: Log10 GI50 (converted)) was 7.08 µM. For the same compound, the CC50 (RXF393; Homo sapiens, RXF 393, read-out: Log10 LC50 (converted)) was greater than 100 µM, the “Log10 TGI50” value (HCT-116) was greater than −4.00 and the GI50 (HCT-116; [5]) was 5.17 µM. For the same compound, the GI50 (HCT-116; [6]) was 5.13 µM, the CC50 (HCT-116; [7]) was greater than 100 µM and the “Log10 TGI50” value (T-47D) was greater than −4.00. It also gave a GI50 (T-47D; Homo sapiens, T47D, read-out: Growth Inhibition GI50) of 5.85 µM, a GI50 (T-47D; Homo sapiens, T47D, read-out: Log10 GI50 (converted)) of 5.89 µM and a CC50 (T-47D; Homo sapiens, T47D, read-out: Log10 LC50 (converted)) greater than 100 µM. The GI50 (OVCAR-4; [5]) was 12 µM, the GI50 (OVCAR-4; [6]) was 12 µM and the CC50 (OVCAR-4; [7]) was greater than 100 µM. For the same compound, the “Log10 TGI50” value (OVCAR-4) was −4.04, the “Log10 TGI50” value (HS578T) was −4.64 and the GI50 (HS578T; Homo sapiens, Hs-578T, read-out: Growth Inhibition GI50) was 3.67 µM. It also gave a GI50 (HS578T; Homo sapiens, Hs-578T, read-out: Log10 GI50 (converted)) of 3.63 µM, a CC50 (HS578T; Homo sapiens, Hs-578T, read-out: Log10 LC50 (converted)) greater than 100 µM and a GI50 (OVCAR-8; [5]) of 9.67 µM. For the same compound, the GI50 (OVCAR-8; [6]) was 9.77 µM, the CC50 (OVCAR-8; [7]) was greater than 100 µM and the “Log10 TGI50” value (OVCAR-8) was greater than −4.00. For the same compound, the “Log10 TGI50” value (HT-29) was −4.82, the GI50 (HT-29; [5]) was 3.92 µM and the GI50 (HT-29; [6]) was 3.89 µM. It also gave a CC50 (HT-29; [7]) greater than 100 µM.
